Patent US10005792B2, “Aminoindane-, aminotetrahydronaphthalene- and aminobenzocyclobutane-derived PRMT5-inhibitors” (CTXT PTY LTD, priority 2014, dated 2018)

Tests used:
[1] = system: symmetrical dimethylation of arginine (Di-Methyl Histone H4R3) in cell line TE11; assay: PRMT5 Biomarker Assay; type: cell-based; settings: Homo sapiens, TE-11; TE11 cells, 72 h incubation, EpiQuik Global Di-Methyl Histone H4R3 ELISA, corrected for total protein
Experimental: (§1) Compounds of the invention may be tested for potency to inhibit symmetrical dimethylation of arginine in the following assay:
The cell line TE11 was seeded at a density of 12,000 cells per well in 96 well tissue culture plates in DME medium and 10% foetal bovine serum, and allowed to adhere overnight under standard culture conditions (37° C., 5% CO2). Compound dilutions prepared in DMSO were added to the medium, with negative control wells reserved for treatment with DMSO only and positive controls receiving a potent PRMT5 inhibitor. The concentration of the inhibitor had been previously determined to give maximum inhibition of the methylation. After incubation for 72 h, cells were washed twice in ice-cold PBS, lysed in lysis buffer (20 mM Tris pH 7.4, 135 mM NaCl, 1.5 mM MgCl2, 1 mM EGTA, 10% glycerol and 1% Triton-X100), centrifuged at 15,000×g and the supernatants collected for subsequent analysis. The methylation level was determined using the EpiQuik™ Global Di-Methyl Histone H4R3 Quantification ELISA Kit (Epigentek, Farmingdale, N.Y.) as per the manufacturer's recommendations; in parallel the total protein amount in the lysate was quantified using a Lowry protein assay. The methylation level was corrected for the total protein amount of each sample, normalised to the controls, and the data fitted against a four-parameter logistic model to determine the 50% inhibitory concentration (IC50).

[2] = target: T1, Full-length PRMT5 enzyme co-expressed with MEP50 (Homo sapiens (Human), UniProt O14744); assay: PRMT5 Biochemical Assay; settings: 200 nM histone H4 derived peptide substrate, 1 μM S-Adenosyl methionine, 4 hours at 37° C, Transcreener EPIGEN fluorescence polarisation
T1 sequence (O14744 whole entry): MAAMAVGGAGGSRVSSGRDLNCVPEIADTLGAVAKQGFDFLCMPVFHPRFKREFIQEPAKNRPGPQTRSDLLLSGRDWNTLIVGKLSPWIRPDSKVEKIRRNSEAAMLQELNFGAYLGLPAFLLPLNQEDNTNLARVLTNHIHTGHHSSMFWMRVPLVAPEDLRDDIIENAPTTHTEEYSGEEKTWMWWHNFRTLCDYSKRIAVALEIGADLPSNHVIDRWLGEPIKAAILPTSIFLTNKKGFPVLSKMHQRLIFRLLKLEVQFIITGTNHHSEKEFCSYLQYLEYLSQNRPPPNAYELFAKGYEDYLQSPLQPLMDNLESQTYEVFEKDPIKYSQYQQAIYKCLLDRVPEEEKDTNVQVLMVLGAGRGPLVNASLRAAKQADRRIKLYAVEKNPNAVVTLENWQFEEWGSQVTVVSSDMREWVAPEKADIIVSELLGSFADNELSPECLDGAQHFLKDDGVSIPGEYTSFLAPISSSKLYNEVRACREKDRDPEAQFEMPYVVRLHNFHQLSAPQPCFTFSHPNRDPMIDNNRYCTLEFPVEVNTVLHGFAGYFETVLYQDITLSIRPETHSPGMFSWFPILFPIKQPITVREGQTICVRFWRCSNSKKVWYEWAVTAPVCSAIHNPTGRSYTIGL
T1 sequence (Q9BQA1 whole entry partner): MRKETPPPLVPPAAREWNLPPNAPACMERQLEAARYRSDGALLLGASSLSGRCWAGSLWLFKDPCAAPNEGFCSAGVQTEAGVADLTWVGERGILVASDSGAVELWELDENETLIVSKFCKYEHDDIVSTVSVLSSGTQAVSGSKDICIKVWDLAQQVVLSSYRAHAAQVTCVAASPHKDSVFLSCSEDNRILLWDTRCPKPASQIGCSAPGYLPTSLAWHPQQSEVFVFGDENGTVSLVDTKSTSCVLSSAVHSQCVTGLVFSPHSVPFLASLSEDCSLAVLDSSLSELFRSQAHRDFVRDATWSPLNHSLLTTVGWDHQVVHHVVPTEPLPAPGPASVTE
Experimental: Compounds of the invention may be tested for in vitro activity in the following assay: A histone H4 derived peptide is used as substrate (amino acid sequence: […]NH2). Full-length PRMT5 enzyme (NCBI Reference sequence NP-006100.2) was co-expressed with Hiss-MEP50 in insect cells and purified via Nickel immobilized metal affinity and gel filtration chromatography (“the enzyme”).
The 6 μL assay reactions are run in Greiner brand black 384-well low volume plates. All reactions contained assay buffer (phosphate buffered saline, 0.01% (v/v) Tween-20, 0.01% (w/v) albumin from chicken egg white, 1 mM dithiothreitol, 200 nM peptide substrate, 1 μM S-Adenosyl methionine, and 15 ng/reaction enzyme, with the enzyme being omitted from negative control reactions. Compounds were added in a volume of 100 nL from dilution series prepared in DMSO, positive and negative control reactions receiving the same volume DMSO without compound. The plates were sealed with adhesive seals and incubated for 4 hours at 37° C. Reaction progress was measured using the Transcreener™ EPIGEN methyltransferase assay (BellBrook Labs, Madison, Wis.) as recommended by the manufacturer. To each reaction 2 μL detection mix were added, containing coupling enzymes, fluorescence polarisation tracer, and AMP antibody. Plates were incubated for 90 min before being read on a PerkinElmer EnVision™ plate reader in fluorescence polarisation mode.

[3] = system: symmetrical dimethylation of arginine (Di-Methyl Histone H4 Arginine 3) in cell line TE11; assay: Revised PRMT5 Biomarker Assay; settings: Homo sapiens, TE-11; TE11 cells, 72 hours incubation, immunofluorescence, corrected for cell number (Hoechst 33342), plate reader based
Experimental: as §1
The cell line TE11 was seeded at a density of 6,000 cells per well in 96 well optical quality tissue culture plates in DME medium and 10% foetal bovine serum, and allowed to adhere for 5 hours under standard culture conditions (37 degree Celsius, 5% CO2). Compound dilutions prepared in DMSO were added to the medium, with negative control wells reserved for treatment with DMSO only and positive controls receiving a potent PRMT5 inhibitor compound at 1 μM concentration. After incubation for 72 hours, the cells were fixed with 3.7% formaldehyde in PBS for 30 minutes at room temperature, washed with phosphate buffer saline and blocked with Odyssey blocking buffer (LI-COR, Lincoln, Nebr.). Rabbit anti-Di-Methyl Histone H4 Arginine 3 specific antibody (Epigentek) in Odyssey blocking buffer was added and incubated for 14 hours at 4 degree Celsius. After washing, anti-rabbit secondary antibody labelled with Alexa647 dye (LifeTechnologies) and Hoechst 33342 (1 μg/mL, SigmaAldrich) were added for 1 hour incubation. Plates were washed and read on a PerkinElmer Envision 2103 in fluorescence intensity scanning mode (24 scans across the well area). The methylation level information was corrected for the number of cells as expressed by the Hoechst 33342 stain, converted to percent inhibition relative to controls on the same plate and the data fitted against a four-parameter logistic model to determine the 50% inhibitory concentration (IC50 plate-reader based). Alternatively, the plates were imaged on a PerkinElmer Phenix high content imaging platform. Using a Columbus image analysis pipeline, individual nuclei were located by Hoechst 33342 stain and the methylation level was calculated from the Alexa647-related intensity in the same area. The resulting mean intensity per cell was directly converted to percent inhibition as outlined above (IC50, imager based)).

[4] = target: T1, Full-length PRMT5 enzyme co-expressed with MEP50; assay: Revised PRMT5 Biochemical Assay; settings: 1 μM histone H4 derived peptide substrate, 1 μM S-Adenosyl methionine, 4 hours at 37 degree Celsius, Transcreener EPIGEN fluorescence polarisation
Summary of the method: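 Full-length human PRMT5 co-expressed with His-MEP50 in insect cells (15 ng/reaction), 1 μM H4-derived peptide and 1 μM SAM in PBS/0.01% Tween-20/egg albumin/1 mM DTT, 4 h at 37 °C. SAH formation read by Transcreener EPIGEN fluorescence polarisation after 90 min detection. IC50 from four-parameter fit of plate-normalised % inhibition.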

Row | Structure (SMILES) | IC50 [1] | IC50 [2] | IC50 [3] | IC50 [4]
1 | O=C(NCC(O)CNC1Cc2ccccc2C1)c1ccc(C(=O)N2CCOCC2)cc1 (centres unmarked) [Compound 2, N-(3-((2,3-Dihydro-1H-inden-2-yl)amino)-2-hydroxypropyl)-4-(morpholine-4-carbonyl)benzamide] | 69 nM | 310 nM |  | 
2 | Cc1nonc1COc1ccc(C(=O)NC[C@H](O)CNC2Cc3ccccc3C2)cc1 [Compound 8, (R)-N-(3-((2,3-Dihydro-1H-inden-2-yl)amino)-2-hydroxypropyl)-4-((4-methyl-1,2,5-oxadiazol-3-yl)methoxy)benzamide] | 336 nM | 263 nM |  | 
3 | CC(=O)N1CCC(Nc2cncc(C(=O)NCC(O)CNC3Cc4ccccc4C3)c2)CC1 (centres unmarked) [Compound 53, 5-((1-Acetylpiperidin-4-yl)amino)-N-(3-((2,3-dihydro-1H-inden-2-yl)amino)-2-hydroxypropyl)nicotinamide] |  |  | 0.662 µM | 164 nM
4 | CC(=O)N1CCC(Nc2cc(C(=O)NC[C@H](O)CNC3Cc4ccccc4C3)ccn2)CC1 [Compound 55, (R)-2-((1-Acetylpiperidin-4-yl)amino)-N-(3-((2,3-dihydro-1H-inden-2-yl)amino)-2-hydroxypropyl)isonicotinamide] |  |  | 0.122 µM | 450 nM
5 | CC(=O)N1CCC(Nc2cc(C(=O)NC[C@@H](O)CNC3Cc4ccccc4C3)ccn2)CC1 [Compound 56, (S)-2-((1-Acetylpiperidin-4-yl)amino)-N-(3-((2,3-dihydro-1H-inden-2-yl)amino)-2-hydroxypropyl)isonicotinamide] |  |  | 0.007 µM | 98 nM
6 | CC[C@H]1COCCN1C(=O)c1ccc(C(=O)NC[C@@H](O)CNC2Cc3ccccc3C2)cc1 [Compound 70, N-((S)-3-((2,3-dihydro-1H-inden-2-yl)amino)-2-hydroxypropyl)-4-((S)-3-ethylmorpholine-4-carbonyl)benzamide] |  |  | 0.015 µM | 157 nM
7 | CCOc1cc(C(=O)N2CCOCC2)ccc1C(=O)NC[C@@H](O)CNC1Cc2ccccc2C1 [Compound 75, (S)-N-(3-((2,3-dihydro-1H-inden-2-yl)amino)-2-hydroxypropyl)-2-ethoxy-4-(morpholine-4-carbonyl)benzamide] |  |  | 0.004 µM | 64 nM
8 | CCOc1cc(C(=O)N2CCCC2)ccc1C(=O)NC[C@@H](O)CNC1Cc2ccccc2C1 [Compound 76, (S)-N-(3-((2,3-dihydro-1H-inden-2-yl)amino)-2-hydroxypropyl)-2-ethoxy-4-(pyrrolidine-1-carbonyl)benzamide] |  |  | 0.008 µM | 209 nM
9 | CCOc1cc(C(=O)N2C3CCC2COC3)ccc1C(=O)NC[C@@H](O)CNC1Cc2ccccc2C1 [Compound 77, 4-(3-oxa-8-azabicyclo[3.2.1]octane-8-carbonyl)-N-((S)-3-((2,3-dihydro-1H-inden-2-yl)amino)-2-hydroxypropyl)-2-ethoxybenzamide] |  |  | 0.0005 µM | 29 nM
10 | O=C(NC[C@@H](O)CNC1Cc2ccccc2C1)c1ccc(C(=O)N2C3CCC2COC3)cc1 [Compound 103, 4-(3-oxa-8-azabicyclo[3.2.1]octane-8-carbonyl)-N-((S)-3-((2,3-dihydro-1H-inden-2-yl)amino)-2-hydroxypropyl)benzamide] |  |  | 0.017 µM | 120 nM
11 | O=C(NC[C@@H](O)CNC1Cc2ccccc2C1)c1ccc(C(=O)N2CC3CCC(C2)O3)cc1 [Compound 105, 4-(8-oxa-3-azabicyclo[3.2.1]octane-3-carbonyl)-N-((S)-3-((2,3-dihydro-1H-inden-2-yl)amino)-2-hydroxypropyl)benzamide] |  |  | 0.01 µM | 196 nM
12 | CN(C[C@@H](O)CNC1Cc2ccccc2C1)C(=O)c1ccc(C(=O)N2CCOCC2)cc1 [Compound 111, (S)—N-(3-((2,3-Dihydro-1H-inden-2-yl)amino)-2-hydroxypropyl)-N-methyl-4-(morpholine-4-carbonyl)benzamide] |  |  | > 2 µM | 10400 nM
13 | CCOc1cc(C(=O)N2CCS(=O)(=O)CC2)ccc1C(=O)NC[C@@H](O)CNC1Cc2ccccc2C1 [Compound 114, (S)-N-(3-((2,3-dihydro-1H-inden-2-yl)amino)-2-hydroxypropyl)-4-(1,1-dioxidothiomorpholine-4-carbonyl)-2-ethoxybenzamide] |  |  | 0.024 µM | 66 nM
14 | O=C(NC[C@@H](O)CNC1Cc2ccccc2C1)c1ccc(C(=O)N2C3CCC2COC3)cc1Cl [Compound 121, 4-(3-oxa-8-azabicyclo[3.2.1]octane-8-carbonyl)-2-chloro-N-((S)-3-((2,3-dihydro-1H-inden-2-yl)amino)-2-hydroxypropyl)benzamide] |  |  | 0.016 µM | 130 nM
15 | CCOc1cc(C(=O)N2CCOC[C@H]2C)ccc1C(=O)NC[C@@H](O)CNC1Cc2ccccc2C1 [Compound 123, N-((S)-3-((2,3-dihydro-1H-inden-2-yl)amino)-2-hydroxypropyl)-2-ethoxy-4-((R)-3-methylmorpholine-4-carbonyl)benzamide] |  |  | 0.012 µM | 40 nM
16 | CCOc1cc(C(=O)N2CCOC[C@@H]2CC)ccc1C(=O)NC[C@@H](O)CNC1Cc2ccccc2C1 [Compound 124, N-((S)-3-((2,3-dihydro-1H-inden-2-yl)amino)-2-hydroxypropyl)-2-ethoxy-4-((S)-3-ethylmorpholine-4-carbonyl)benzamide] |  |  | 0.013 µM | 48 nM
17 | CCOc1cc(C(=O)N2C[C@H]3C[C@@H]2CO3)ccc1C(=O)NC[C@@H](O)CNC1Cc2ccccc2C1 [Compound 127, 4-((1R,4R)-2-oxa-5-azabicyclo[2.2.1]heptane-5-carbonyl)-N-((S)-3-((2,3-dihydro-1H-inden-2-yl)amino)-2-hydroxypropyl)-2-ethoxybenzamide] |  |  | 0.002 µM | 137 nM
18 | O=C(NC[C@@H](O)CNC1Cc2ccccc2C1)c1ccc(C(=O)N2C3CCC2COC3)cc1F [Compound 133, 4-(3-oxa-8-azabicyclo[3.2.1]octane-8-carbonyl)-N((S)-3-((2,3-dihydro-1H-inden-2-yl)amino)-2-hydroxypropyl)-2-fluorobenzamide] |  |  | 0.009 µM | 131 nM
19 | CCOc1cc(C(=O)N2C3CCCC2COC3)ccc1C(=O)NC[C@@H](O)CNC1Cc2ccccc2C1 [Compound 135, 4-(3-Oxa-9-azabicyclo[3.3.1]nonane-9-carbonyl)-N—((S)-3-((2,3-dihydro-1H-inden-2-yl)amino)-2-hydroxypropyl)-2-ethoxybenzamide] |  |  | 0.0003 µM | 15 nM
